Test: xn = mol fraction of the nth substance listed

CCC[n+]1ccn(C)c1.C[C@H](N)C(=O)[O-] + O
viscosity [mPa·s], 100.3 kPa
Conditions | 288.15 K | 293.15 K | 298.15 K | 303.15 K | 308.15 K | 313.15 K | 318.15 K | 323.15 K | 328.15 K
x1 = 0.0003008 | 1.156 | 1.017 | 0.9 | 0.81 | 0.727 | 0.661 | 0.604 | 0.554 | 0.511
x1 = 0.0003999 | 1.162 | 1.022 | 0.907 | 0.813 | 0.732 | 0.664 | 0.606 | 0.557 | 0.513
x1 = 0.0004953 | 1.167 | 1.027 | 0.911 | 0.817 | 0.735 | 0.666 | 0.608 | 0.559 | 0.516
x1 = 0.001005 | 1.203 | 1.057 | 0.938 | 0.838 | 0.755 | 0.685 | 0.626 | 0.573 | 0.529
x1 = 0.003004 | 1.362 | 1.197 | 1.057 | 0.939 | 0.842 | 0.759 | 0.688 | 0.629 | –
x1 = 0.004999 | 1.513 | 1.326 | 1.163 | 1.028 | 0.917 | 0.828 | 0.749 | 0.685 | –
x1 = 0.007004 | 1.658 | 1.447 | 1.273 | 1.119 | 0.998 | 0.894 | 0.806 | 0.736 | –
x1 = 0.008999 | 1.822 | 1.576 | 1.368 | 1.21 | 1.071 | 0.959 | 0.868 | 0.781 | –
x1 = 0.011 | 1.958 | 1.698 | 1.478 | 1.302 | 1.147 | 1.027 | 0.929 | 0.832 | –
x1 = 0.01301 | 2.101 | 1.819 | 1.581 | 1.38 | 1.225 | 1.089 | 0.986 | 0.888 | –
x1 = 0.015 | 2.247 | 1.941 | 1.678 | 1.469 | 1.293 | 1.157 | 1.037 | 0.932 | –
x1 = 0.01799 | 2.46 | 2.109 | 1.826 | 1.599 | 1.394 | 1.254 | 1.115 | 1 | –

CC[n+]1ccccc1.N#C[N-]C#N + O
100 kPa
Conditions | electrical conductivity [S/m] | viscosity [mPa·s]
298.15 K, x1 = 0.9411 | 2.15 | –
298.15 K, x1 = 0.9677 | 1.94 | –
298.15 K, x2 = 0.01044 | – | 16.52
303.15 K, x1 = 0.9542 | 2.27 | –
303.15 K, x1 = 0.9756 | – | 13.97
308.15 K, x1 = 0.9542 | 2.58 | –
308.15 K, x2 = 0.01044 | – | 12.55
313.15 K, x1 = 0.9355 | – | 10.08
313.15 K, x1 = 0.9619 | – | 10.49
313.15 K, x1 = 0.9677 | 2.82 | –
313.15 K, x2 = 0.01044 | – | 11.02
318.15 K, x1 = 0.9542 | 3.25 | –
323.15 K, x1 = 0.9756 | – | 8.27
328.15 K, x1 = 0.9756 | – | 7.44
333.15 K, x1 = 0.9283 | 4.91 | –
333.15 K, x1 = 0.9411 | 4.81 | –
333.15 K, x1 = 0.9677 | 4.61 | –
338.15 K, x1 = 0.9355 | – | 5.76
338.15 K, x1 = 0.9485 | – | 5.86
338.15 K, x1 = 0.9756 | – | 6.1

Cn1cc[n+](C)c1.[Cl-] + O
viscosity [mPa·s], 100 kPa
Conditions | x1 = 8.631e-05 | x1 = 0.0002029 | x1 = 0.0003509 | x1 = 0.0005369 | x1 = 0.0007226 | x1 = 0.0008926 | x1 = 0.001063 | x1 = 0.001349 | x1 = 0.001718
278.15 K | 1.521 | 1.526 | 1.529 | 1.533 | 1.536 | 1.538 | 1.544 | 1.548 | 1.553
283.15 K | 1.307 | 1.311 | 1.313 | 1.317 | 1.32 | 1.323 | 1.327 | 1.33 | 1.334
288.15 K | 1.141 | 1.143 | 1.145 | 1.148 | 1.15 | 1.152 | 1.155 | 1.159 | 1.164
293.15 K | 1.006 | 1.007 | 1.009 | 1.012 | 1.014 | 1.016 | 1.018 | 1.022 | 1.026
298.15 K | 0.893 | 0.895 | 0.897 | 0.899 | 0.901 | 0.903 | 0.906 | 0.908 | 0.912
303.15 K | 0.802 | 0.803 | 0.804 | 0.805 | 0.806 | 0.808 | 0.811 | 0.813 | 0.817
308.15 K | 0.721 | 0.723 | 0.724 | 0.727 | 0.728 | 0.73 | 0.732 | 0.734 | 0.737
313.15 K | 0.654 | 0.655 | 0.657 | 0.659 | 0.66 | 0.662 | 0.664 | 0.666 | 0.669

Cn1cc[n+](CCO)c1.O=S(=O)([O-])C(F)(F)C(F)(F)C(F)(F)C(F)(F)F + O
101 kPa
Conditions | electrical conductivity [S/m] | viscosity [mPa·s]
298.15 K, x1 = 0.02322 | 4.64 | 2.48
298.15 K, x1 = 0.02741 | 4.83 | 2.81
298.15 K, x1 = 0.05114 | – | 5.32
298.15 K, x1 = 0.05966 | – | 6.3
298.15 K, x1 = 0.09831 | 4.54 | 11.5
298.15 K, x1 = 0.1816 | 2.58 | 27.4
298.15 K, x1 = 0.6778 | 0.116 | 256
308.15 K, x1 = 0.04384 | – | 3.39
308.15 K, x1 = 0.0644 | – | 5.13
308.15 K, x1 = 0.06999 | – | 5.73
308.15 K, x1 = 0.07565 | – | 6.11
308.15 K, x1 = 0.08994 | – | 7.61
308.15 K, x1 = 0.1303 | – | 11.95
308.15 K, x1 = 0.1442 | – | 13.84
308.15 K, x1 = 0.2068 | – | 21.6
308.15 K, x1 = 0.3955 | – | 53.9
318.15 K, x1 = 0.02322 | – | 1.601
318.15 K, x1 = 0.03214 | – | 2.096
318.15 K, x1 = 0.04384 | – | 2.67
318.15 K, x1 = 0.05966 | – | 3.7
318.15 K, x1 = 0.09831 | – | 6.23
318.15 K, x1 = 0.1303 | – | 8.76
318.15 K, x1 = 0.2329 | – | 17.91

Reference: the CheMixHub ionic liquid set
